Read-outs that look alike come from different tables or passages of the source.
How the values were obtained:
[1] = from SDS of each solvent, cited from earlier work
[2] = Viscosity of solvent compositions (modular compact rheometer); type: physicochemical; conditions: solvent mixed with 0.1 wt % BHT and 4x PGR composition; 25° C.
Method: (§1) Propylene glycol was used as a control. The evaluated solvents, along with the mass of each PGR component and BHT, are shown below in Table 4. The density and viscosity of the solvent compositions were then determined. The density measurements were obtained using a DMA™ 4500, which was calibrated using 20° C. DI water. Viscosity was determined using a modular compact rheometer. Viscosity levels were measured at 25° C.

[3] = Two-week stability test of solvent / Warden CX mixtures (viscosity, density); type: physicochemical; conditions: mixture with Warden CX; for Post: Density / Post: Viscosity: after two weeks at 54° C., 4° C. and/or −10° C.; for Pre: Viscosity: before two-week stability test
Method: The same seven solvent compositions were then evaluated for their compatibility with Warden® CX, which is a combination of fungicide and insecticide (containing a proprietary solvent) formulated for soybean seed treatment and sold by Winfield® United. Specifically, 0.5 fl. oz./cwt. of each experimental solvent was added to 50 mL of Warden® CX. […] The mixtures were then evaluated for stability by placing the samples at 54° C., 4° C. and/or at −10° C. for a two-week period. Viscosity levels were measured before and after the two-week stability test, along with the post-test density levels, and the results shown below in Table 6.

[4] = Active ingredient loading of PGR components in solvent compositions by HPLC; type: physicochemical
Excerpt: To understand if changing the active component loading rate would impact the biological performance of the PGR compositions, two solvent compositions, methoxy propanol and tetrahydrofuryl alcohol, were mixed with various PGR compositions (4×) selected for their favorable solubility properties, curing properties, and compatibility with Rhizobia. Propylene glycol was again included as a control sample, and each composition was mixed with BHT (4×). Citric acid was excluded from all samples. The weight percentage of each PGR component mixed with each solvent composition is shown below in Table 7.
The HPLC was performed using an Agilent 1260 device with a diode-array detector for active component quantification.
[…]. As shown, the deviation was less than 1% for each composition.

[5] = Density of solvent compositions (DMA 4500); type: physicochemical; conditions: solvent mixed with 0.1 wt % BHT and 4x PGR composition
Method: as §1

Compound | Boiling Point [1] | Density [1] | Flash Point [1] | Solubility [1] | Post: Density [3] | Post: Viscosity [3] | Pre: Viscosity [3] | further results
CCCCC(CC)COC(=O)C(C)O (centres unmarked) [Lactic acid, 2-ethylhexyl ester] | 122 C. ° | 1.2 g/mL |  |  |  |  |  | 
CCCCOCCOCCO [Diethylene glycol butyl ether] | 228 C. ° | 0.953 g/mL | 99 C. ° | Miscible | 1.0486 g/mL | 45.06 cPa | 112.48 cPa | Viscosity [2]: 7.7338 cPa
CC(=O)OCCCCCCC=O [Oxo-heptyl acetate] | 192 C. ° | 0.886 g/mL | 43 C. ° | Slightly |  |  |  | 
CC(O)CO (centres unmarked) [Propylene Glycol, reference compound] | 205 C. ° | 1.12 g/mL | 138 C. ° | Soluble |  |  |  | Solubility ([1]; listed as propylene glycol): soluble
Ethyl hexanol | 185 C. ° | 0.833 g/mL | 75 C. ° |  |  |  |  | 
CC(=O)OCC(COC(C)=O)OC(C)=O [Glyceryl triacetate] | 259 C. ° | 1.158 g/mL | 148 C. ° | Soluble |  |  |  | Solubility ([1]; listed as glyceryl triacetate): soluble
CCOC(C)=O [Ethyl acetate] | 77 C. ° |  | −4.4 C. ° | Miscible |  |  |  | 
COCC(C)O (centres unmarked) [1-methoxy-2-propanol] | 118 C. ° | 0.916 g/mL | 34 C. ° |  | 1.0440 g/mL | 106.18 cPa | 1764.63 cPa | Aux. by HPLC ([4]; 1st composition of Table 7, auxin added 0.6596%): 0.674%; Cyt. by HPLC ([4]; 1st composition of Table 7, cytokinin added 0.0614%): 0.072%; Gib. by HPLC ([4]; 1st composition of Table 7, gibberellin added 0.0460%): 0.046%; Aux. by HPLC ([4]; 2nd composition of Table 7, auxin added 0.6136%): 0.630%; Cyt. by HPLC ([4]; 2nd composition of Table 7, cytokinin added 0.1074%): 0.126%; Gib. by HPLC ([4]; 2nd composition of Table 7, gibberellin added 0.0460%): 0.045%; Aux. by HPLC ([4]; 3rd composition of Table 7, auxin added 0.5215%): 0.531%; Cyt. by HPLC ([4]; 3rd composition of Table 7, cytokinin added 0.1534%): 0.178%; Gib. by HPLC ([4]; 3rd composition of Table 7, gibberellin added 0.0920%): 0.088%; Aux. by HPLC ([4]; 4th composition of Table 7, auxin added 0.4985%): 0.502%; Cyt. by HPLC ([4]; 4th composition of Table 7, cytokinin added 0.1994%): 0.235%; Gib. by HPLC ([4]; 4th composition of Table 7, gibberellin added 0.0690%): 0.069%; Aux. by HPLC ([4]; 5th composition of Table 7, auxin added 0.5675%): 0.579%; Cyt. by HPLC ([4]; 5th composition of Table 7, cytokinin added 0.1074%): 0.130%; Gib. by HPLC ([4]; 5th composition of Table 7, gibberellin added 0.0920%): 0.089%; change of viscosity over the two-week period [3]: decreasing the most
CCCCOC(=O)C(C)O (centres unmarked) [Butyl lactate] | 186 C. ° | 0.984 g/mL | 69 C. ° | Slightly | 1.1067 g/mL | 387.57 cPa | 901.94 cPa | Viscosity [2]: 5.0736 cPa
CCCCCOC(C)=O [Amyl Acetate] | 149 C. ° | 0.87 g/mL | 40 C. ° | Insoluble |  |  |  | Viscosity [1]: 1.58 cP
CCCCOCCO [Ethylene glycol butyl ether, 2-butoxyl ethanol] | 171 C. ° | 0.902 g/mL | 67 C. ° |  | 1.0263 g/mL | 69.69 cPa | 138.49 cPa | 
OCC1CCCO1 (centres unmarked) [Tetrahydrofurfyl Alcohol] | 178 C. ° | 1.054 g/mL | 75 C. ° | Miscible | 1.0825 g/mL | 150.59 cPa | 962.75 cPa | Aux. by HPLC ([4]; 6th composition of Table 7, auxin added 0.4958%): 0.497%; Cyt. by HPLC ([4]; 6th composition of Table 7, cytokinin added 0.094%): 0.108%; Gib. by HPLC ([4]; 6th composition of Table 7, gibberellin added 0.0804%): 0.081%; Viscosity [2]: 5.4046 cPa; Density [5]: 1.0548 g/mL

— patent US11812753B2, “Solvent compositions promoting plant growth” (priority 2020, dated 2023)
